“And” between values parts separate entries of the source, which are not always exact repeats. Equal values may be shown once.
Key:
[1] = system: Mrgpr-cluster KO DRG neurons; assay: Ca2+ imaging of Mrgpr-cluster KO DRG neurons infected with lentivirus encoding Mrgpra1, MRGPRX4 or MRGPRX3; format: cell-based, mouse; conditions: 50 µM bilirubin (Fig 3J)
Description: DRGs were incubated with Fluo-4 AM 24 hr after dissociation (native genotype) or 48 hr after dissociation (virally transduced). Unless otherwise noted, cells were imaged for 20 seconds to establish a baseline before compounds were added. After 30 s, a 2 min wash was applied before addition of another substances. At the end of every imaging trial, 50 mM KCl was added as a positive control. […] For ruthenium red inhibitor experiments, neurons were incubated with 10 µM ruthenium red for 5 min prior to imaging. Percentage activated was determined as earlier described.
DRG neurons from all spinal levels were collected in cold DH10 media (90% Dulbecco’s modified Eagle’s medium (DMEM)/F-12, 10% FBS, penicillin (100 U/mL), and streptomycin (100 μg/mL)). DRGs were digested with a dispase (5 mg/ml)/collagenase type I (1 mg/ml) enzyme mixture at 37°C for 45 min. After trituration, cells were spun at 300 g and re-suspended in DH10 before being plated on glass coverslips coated with poly-D-lysine (0.5 mg/ml) and laminin (10 μg/ml, Invitrogen). DRGs were cultured with DH10 supplemented with 50 ng/mL NGF at 37°C.
Lentiviruses encoding various cDNA for MRGPRs were generated using psPAX2 and pMD2.G. Virus was pelleted by centrifugation at 100,000 g for 4 hr, gently washed with twice with DH10 medium, and suspended in DH10. One day after DRG isolation and culture, DRGs were infected with lentivirus […]. The following morning, medium was completely replaced with fresh DH10 supplemented with 50 ng/mL NGF. 24 hr after infection, cells were processed for calcium imaging.

MRGPRC11 [2] = target: T1, MRGPRC11 (Mus musculus, UniProt Q8CIP3); assay: Microscale thermophoresis binding to MRGPRC11; conditions: for microscale thermophoresis response (binding isotherm), mean: mean of n=3, Fig 2-O
T1 construct: expressed in transfected cells
T1 sequence (Q8CIP3 1-322): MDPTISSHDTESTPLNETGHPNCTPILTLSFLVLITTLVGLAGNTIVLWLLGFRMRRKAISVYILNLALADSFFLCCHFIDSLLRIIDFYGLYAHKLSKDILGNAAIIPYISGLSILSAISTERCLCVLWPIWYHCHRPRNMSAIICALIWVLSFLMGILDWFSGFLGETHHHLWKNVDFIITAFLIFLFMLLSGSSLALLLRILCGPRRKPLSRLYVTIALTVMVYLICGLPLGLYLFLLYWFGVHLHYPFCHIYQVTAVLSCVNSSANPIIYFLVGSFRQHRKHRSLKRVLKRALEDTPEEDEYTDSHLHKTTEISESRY
Description: Binding isotherms for MRGPRA1, MRGPRX4, and MRGRPC11 towards various ligands were determined by microscale thermophoresis with the NanoTemper monolith NT.115 instrument ([Duhr and Braun, 2006]). Ligands were pre-incubated with 10 µM of the GFP-tagged receptor of interest for 5 min at room temperature in binding buffer (20 mM Tris and 150 mM NaCl at pH 8.8). Receptors were crudely purified as a membrane fraction from cells stably expressing the receptor ([Vasavda et al., 2017]). Haem metabolites were freshly dissolved in 0.1 M NaOH in dim light and then diluted into assay buffer. Lyophilized BAM8-22 was dissolved in binding buffer. The pH of each ligand was evaluated prior to incubation with a receptor. Samples were loaded into NT.115 Hydrophobic-Treated Capillaries from NanoTemper. Microscale thermophoretic experiments were executed using 20% LED power and 15% MST power. KDs were calculated using the law of mass action with data from three independent experiments. Binding between bilirubin and receptors was evaluated purely thermophoretically, whereas binding between BAM8-22 and MRGPRC11 was evaluated by T-Jump. Samples with dramatic deviations in initial fluorescence were excluded.

[3] = system: murine peritoneal mast cells; assay: Mouse peritoneal mast cell histamine release assay; format: cell-based; conditions: 100 µM bilirubin
Description: Adult male mice 8–12 weeks of age were sacrificed through CO2 inhalation. A total of 25 mL of mast cell dissociation media (MCDM; HBSS with 3% fetal bovine serum and 10 mM HEPES, pH 7.2) was chilled on ice before being used to make two sequential peritoneal lavages. Lavages were combined and spun at 200 g. […] Mast cells were recovered in the pellet. Mast cells were re-suspended in DMEM with 10% fetal bovine serum (FBS) and 25 ng/mL recombinant mouse stem cell factor (Sigma). Mast cells were purified as described and allowed to recover for 2 hr at 37°C. Cells were then seeded in 96-well plates coated with […] fibronectin at 300 cells/well. Plates were incubated at 37°C for 45 min before assay. For the assay, all compounds tested were diluted in CIB. Five minutes after compound addition, supernatant was aspirated and frozen at −80°C until histamine levels were determined with an HTRF histamine assay kit (Cisbio Assays) according to the manufacturer’s instructions.

MRGPRC11 [4] = target: T1, MRGPRC11; assay: [35S]GTPγS binding to MRGPRC11 membrane complexes; format: biochemical; conditions: 50 μM bilirubin
Description: MRGPR activation was determined by measuring binding of a radiolabelled and non-hydrolyzable form of GTP, [^35S]guanosine-5’-(γ-thio)triphosphate ([^35S]GTPγS) as previously described ([Vasavda et al., 2017]). Briefly, 10 µg of crude membrane fractions were diluted into 175 µL assay buffer (50 mM HEPES, 5 mM MgCl2, 100 mM NaCl, 1 mM EDTA, 0.1% […]) supplemented with 10 µM GDP and incubated at room temperature for 5 min. Membranes were then incubated an additional 1 min in a final volume of 199 μL assay buffer supplemented with 50 μM bilirubin. Samples were then brought to 200 μL with the addition of 10 nM [^35S]GTPγS. Samples were incubated for 2 hr at 4°C with gentle agitation. The experiment was terminated by rapid filtration onto GF/B filters and washed three times with wash buffer (50 mM Tris-HCl, 5 mM MgCl2, and 50 mM NaCl at pH 7.4). Filters were then immersed in scintillation cocktail and counted. Nonspecific binding was determined by competition with 10 μM unlabelled GTPγS. GTPγS binding assays were performed as two independent experiments, in triplicate.

C=CC1=C(C)/C(=C/c2[nH]c(Cc3[nH]c(/C=C4\NC(=O)C(C)=C4C=C)c(C)c3CCC(=O)O)c(CCC(=O)O)c2C)NC1=O [bilirubin, bilirubin IXα]
Percent activated neurons ([1]; MRGPRX4-infected Mrgpr-cluster KO DRG): 32% | Percent activated neurons ([1]; Mrgpra1-infected Mrgpr-cluster KO DRG): 14% | Percent activated neurons ([1]; uninfected Mrgpr-cluster KO DRG): 1.3% | microscale thermophoresis response (binding isotherm), mean (MRGPRC11 [2]; [Ligand] 3.05e-8 M): 2.385e-5 | microscale thermophoresis response (binding isotherm), mean (MRGPRC11 [2]; [Ligand] 6.1e-8 M): 4.712e-5 | microscale thermophoresis response (binding isotherm), mean (MRGPRC11 [2]; [Ligand] 1.221e-7 M): 4.182e-5 | microscale thermophoresis response (binding isotherm), mean (MRGPRC11 [2]; [Ligand] 2.441e-7 M): 4.08e-5 | microscale thermophoresis response (binding isotherm), mean (MRGPRC11 [2]; [Ligand] 4.883e-7 M): 5.536e-5 | microscale thermophoresis response (binding isotherm), mean (MRGPRC11 [2]; [Ligand] 9.766e-7 M): 1.928e-5 | microscale thermophoresis response (binding isotherm), mean (MRGPRC11 [2]; [Ligand] 1.9531e-6 M): -5.329e-6 | microscale thermophoresis response (binding isotherm), mean (MRGPRC11 [2]; [Ligand] 3.9063e-6 M): -1.57e-5 | microscale thermophoresis response (binding isotherm), mean (MRGPRC11 [2]; [Ligand] 7.8125e-6 M): -3.808e-5 | microscale thermophoresis response (binding isotherm), mean (MRGPRC11 [2]; [Ligand] 1.5625e-5 M): -4.952e-5 | microscale thermophoresis response (binding isotherm), mean (MRGPRC11 [2]; [Ligand] 3.125e-5 M): -4.222e-5 | microscale thermophoresis response (binding isotherm), mean (MRGPRC11 [2]; [Ligand] 6.25e-5 M): 5.5228e-6 | microscale thermophoresis response (binding isotherm), mean (MRGPRC11 [2]; [Ligand] 0.000125 M): 4.793e-5 | microscale thermophoresis response (binding isotherm), mean (MRGPRC11 [2]; [Ligand] 0.00025 M): 9.26e-5 | microscale thermophoresis response (binding isotherm), mean (MRGPRC11 [2]; [Ligand] 0.0005 M): 0.0002843 | Affinity for MRGPRC11 (MRGPRC11 [2]; microscale thermophoresis): little to no affinity | Mast cell histamine release [3]: did not elicit a calcium response or induce appreciable histamine release | GTP binding to MRGPRC11 membrane complexes (MRGPRC11 [4]): not to MRGPRC11 | [35S]GTPγS binding (MRGPRC11 [4]; MRGPRC11 membrane complexes (Fig 2K)): 75 and 84 and 78
